{"source": "paper PMC7200739", "about": "“Small molecule inhibition of human cGAS reduces total cGAMP output and cytokine expression in cells” (Scientific Reports, 2020)", "biological_target": "human CYCLIC GMP-AMP SYNTHASE (h-cGAS) (Homo sapiens, UniProt Q8N884)", "sequence (Q8N884 whole entry)": "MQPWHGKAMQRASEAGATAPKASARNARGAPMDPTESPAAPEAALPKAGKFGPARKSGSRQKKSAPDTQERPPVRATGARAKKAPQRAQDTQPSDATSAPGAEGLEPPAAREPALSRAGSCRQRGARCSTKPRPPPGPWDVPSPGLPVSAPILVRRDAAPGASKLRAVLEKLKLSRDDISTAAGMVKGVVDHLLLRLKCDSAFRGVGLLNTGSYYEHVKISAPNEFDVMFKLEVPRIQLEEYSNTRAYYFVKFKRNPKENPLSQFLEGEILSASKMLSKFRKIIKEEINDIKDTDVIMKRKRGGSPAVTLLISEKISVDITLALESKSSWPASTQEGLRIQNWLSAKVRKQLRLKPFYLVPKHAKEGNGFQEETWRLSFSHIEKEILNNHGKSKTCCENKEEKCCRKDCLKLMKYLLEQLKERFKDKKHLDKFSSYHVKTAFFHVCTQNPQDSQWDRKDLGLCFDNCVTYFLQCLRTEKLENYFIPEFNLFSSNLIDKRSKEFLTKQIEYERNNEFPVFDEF", "assay": "IFN-luciferase reporter dose response in HT-DNA-stimulated THP-1 cells; LC-MS/MS of intracellular cGAMP in RAW KO-cGAS cells expressing h-cGAS", "type": "cell-based", "data": [{"substance": "RU.521", "values": [{"measurement": "IC50", "value": "~0.8", "unit": "µM"}]}]}
